For the compound `NC1=NC(C23CC4CC(CC(C4)C2)C3)N(c2ccc(Cl)cc2)C(N)=N1` (stereo not shown) [Example free base, 4,6-Diamino-1,2-dihydro-1-(4-chlorophenyl)-2-(1-tricyclo[3.3.1.1^3,7]decyl)-1,3,5-triazine], the melting point – broadly, the temperature of the solid-liquid transition – was 168 to 170 °C.

These data come from patent US20080045477A1, “Series Of New 4,6-Diamino-1,2-Dihydro-1-Aryl-1,3,5-Triazines, Substituted By An Adamantyl Moiety In The Position 2 Of Triazine-Their Corresponding Salts, Isomers,Steroisomers, Enantiomers, Free Bases And The Complexes Of All The Above With Natural Macromolecules And Their Synthetic Derivatives” (priority 2001, published 2008).
